Data taken from patent US20230024096A1, “BIFUNCTIONAL COMPOUNDS FOR THE TREATMENT OF CANCER” (Hoffmann-La Roche Inc., priority 2019, published 2023).

Molecular target: T1, SMARCA2 (Homo sapiens, UniProt P51531)
T1 construct: endogenous in cells; host or cells: HT1080 (CRISPR HiBiT knock-in clone, generated in house)
Experiment: SMARCA2 HiBiT degradation assay (cellular)
Format: cell-based
Conditions: table head names A549; for DC50: 6 h incubation, HiBiT-tagged SMARCA2, luminescence read-out, read-out: HiBit A549 SMARCA2 IP (nM) 6 h; for Emax: A549, 6 h incubation, Emax = amount of residual protein remaining in the cell following compound treatment

T1 sequence (P51531 whole entry): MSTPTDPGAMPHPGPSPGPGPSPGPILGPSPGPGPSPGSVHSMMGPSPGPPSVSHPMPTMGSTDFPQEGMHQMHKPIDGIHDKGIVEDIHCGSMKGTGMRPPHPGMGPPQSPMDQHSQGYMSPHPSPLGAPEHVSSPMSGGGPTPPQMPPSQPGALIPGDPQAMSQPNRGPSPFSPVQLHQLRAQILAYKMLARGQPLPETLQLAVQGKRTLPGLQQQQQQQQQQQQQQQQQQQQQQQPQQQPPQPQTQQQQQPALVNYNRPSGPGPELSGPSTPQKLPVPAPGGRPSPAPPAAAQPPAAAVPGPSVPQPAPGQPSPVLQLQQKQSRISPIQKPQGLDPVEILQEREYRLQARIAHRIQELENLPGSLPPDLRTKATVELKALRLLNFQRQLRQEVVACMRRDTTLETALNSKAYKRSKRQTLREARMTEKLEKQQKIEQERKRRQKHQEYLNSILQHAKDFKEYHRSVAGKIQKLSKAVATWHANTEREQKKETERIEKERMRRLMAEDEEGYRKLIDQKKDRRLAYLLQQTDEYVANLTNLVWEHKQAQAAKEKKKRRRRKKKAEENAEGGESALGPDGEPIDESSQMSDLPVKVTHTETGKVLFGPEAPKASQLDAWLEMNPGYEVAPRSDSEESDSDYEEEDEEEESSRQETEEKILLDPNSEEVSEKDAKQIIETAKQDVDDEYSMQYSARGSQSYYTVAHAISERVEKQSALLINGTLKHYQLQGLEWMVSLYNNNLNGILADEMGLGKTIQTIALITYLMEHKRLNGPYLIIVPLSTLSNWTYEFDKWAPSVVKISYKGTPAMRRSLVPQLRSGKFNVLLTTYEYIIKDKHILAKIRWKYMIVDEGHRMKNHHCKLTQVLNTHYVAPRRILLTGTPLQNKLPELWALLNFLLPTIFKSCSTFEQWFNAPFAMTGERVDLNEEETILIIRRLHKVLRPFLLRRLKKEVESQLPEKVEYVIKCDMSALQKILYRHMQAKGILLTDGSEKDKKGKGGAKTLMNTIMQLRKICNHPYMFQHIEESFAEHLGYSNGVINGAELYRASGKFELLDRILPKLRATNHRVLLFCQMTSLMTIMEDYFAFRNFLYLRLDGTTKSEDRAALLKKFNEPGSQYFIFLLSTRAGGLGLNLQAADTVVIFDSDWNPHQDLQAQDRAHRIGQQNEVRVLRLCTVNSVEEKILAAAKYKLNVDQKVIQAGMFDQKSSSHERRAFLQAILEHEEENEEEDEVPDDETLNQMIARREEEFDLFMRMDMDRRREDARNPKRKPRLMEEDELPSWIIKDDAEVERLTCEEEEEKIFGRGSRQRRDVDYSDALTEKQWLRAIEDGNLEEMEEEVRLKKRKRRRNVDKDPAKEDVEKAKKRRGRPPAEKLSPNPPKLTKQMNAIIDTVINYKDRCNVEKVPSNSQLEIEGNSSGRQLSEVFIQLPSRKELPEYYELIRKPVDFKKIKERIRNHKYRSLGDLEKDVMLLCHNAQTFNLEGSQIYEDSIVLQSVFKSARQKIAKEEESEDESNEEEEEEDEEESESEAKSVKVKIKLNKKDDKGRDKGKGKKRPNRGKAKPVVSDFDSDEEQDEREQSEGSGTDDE

| Compound | DC50 [nM] | Emax [%] |
| --- | --- | --- |
| Nc1nnc(-c2ccccc2O)cc1N1CCC(C(=O)N2CC3(CCN(C(=O)C4CCN(c5ccc6c(c5)C(=O)N(C5CCC(=O)NC5=O)C6=O)CC4)C3)C2)(c2ccccc2)CC1 (stereo not drawn) [Example 186, 5-(4-(2-(1-(3-amino-6-(2-hydroxyphenyl)pyridazin-4-yl)-4-phenylpiperidine-4-carbonyl)-2,6-diazaspiro[3.4]octane-6-carbonyl)piperidin-1-yl)-2-(2,6-dioxopiperidin-3-yl)isoindoline-1,3-dione] | 148 | 42 |
| Nc1nnc(-c2ccccc2O)cc1OC1CCCN(c2ccc(N3CCN(CC4CN(C(=O)CCCCn5cc(COc6cccc7c6C(=O)N(C6CCC(=O)NC6=O)C7=O)nn5)C4)CC3)cc2)C1 (racemic) [Example 137, 2-(2,6-dioxo-3-piperidyl)-4-[[1-[5-oxo-5-[3-[[4-[4-[rac-(3S)-3-[3-amino-6-(2-hydroxyphenyl)pyridazin-4-yl]oxy-1-piperidyl]phenyl]piperazin-1-yl]methyl]azetidin-1-yl]pentyl]triazol-4-yl]methoxy]isoindoline-1,3-dione] | 535 | 63 |
| Nc1nnc(-c2ccccc2O)cc1N1CC(Oc2cccc(CN3CCN(C(=O)C4CCN(c5ccc6c(c5)C(=O)N(C5CCC(=O)NC5=O)C6=O)CC4)CC3)c2)C1 (racemic) [Example 155, rac-5-[4-[4-[[3-[1-[3-amino-6-(2-hydroxyphenyl)pyridazin-4-yl]azetidin-3-yl]oxyphenyl]methyl]piperazine-1-carbonyl]-1-piperidyl]-2-(2,6-dioxo-3-piperidyl)isoindoline-1,3-dione] | 5 | 26 |
| Cc1c(C(=O)N2CCN(C(=O)C3CCN(c4ccc5c(c4)C(=O)N(C4CCC(=O)NC4=O)C5=O)CC3)CC2)cccc1N1C2CCC1CN(c1cc(-c3ccccc3O)nnc1N)C2 (racemic) [Example 116, rac-5-[4-[4-[3-[3-[3-amino-6-(2-hydroxyphenyl)pyridazin-4-yl]-3,8-diazabicyclo[3.2.1]octan-8-yl]-2-methyl-benzoyl]piperazine-1-carbonyl]-1-piperidyl]-2-(2,6-dioxo-3-piperidyl)isoindoline-1,3-dione] | 58 | 32 |
| Nc1nnc(-c2ccccc2O)cc1N1CC2CCC(C1)N2c1cccc(OCCN2CCN(C(=O)N3CC4(C3)CN(c3ccc5c(c3)C(=O)N(C3CCC(=O)NC3=O)C5=O)C4)CC2)c1 (racemic) [Example 69, rac-5-[2-[4-[2-[3-[3-[3-amino-6-(2-hydroxyphenyl)pyridazin-4-yl]-3,8-diazabicyclo[3.2.1]octan-8-yl]phenoxy]ethyl]piperazine-1-carbonyl]-2,6-diazaspiro[3.3]heptan-6-yl]-2-(2,6-dioxo-3-piperidyl)isoindoline-1,3-dione] | 16 | 48 |
| Nc1nnc(-c2ccccc2O)cc1N1CC2CCC(C1)N2c1cccc(OCCN2CCN(C(=O)CCC(=O)N3CCN(Cc4cccc5c4C(=O)N(C4CCC(=O)NC4=O)C5=O)CC3)CC2)c1 (racemic) [Example 22, rac-4-[[4-[4-[4-[2-[3-[3-[3-amino-6-(2-hydroxyphenyl)pyridazin-4-yl]-3,8-diazabicyclo[3.2.1]octan-8-yl]phenoxy]ethyl]piperazin-1-yl]-4-oxo-butanoyl]piperazin-1-yl]methyl]-2-(2,6-dioxo-3-piperidyl)isoindoline-1,3-dione] | 212 | 28 |
| Nc1nnc(-c2ccccc2O)cc1N1CC2CCC(C1)N2c1cccc(OC2CCN(C(=O)C3CCN(c4ccc5c(c4)C(=O)N(C4CCC(=O)NC4=O)C5=O)CC3)CC2)c1 (racemic) [Example 113, rac-5-[4-[4-[3-[3-[3-amino-6-(2-hydroxyphenyl)pyridazin-4-yl]-3,8-diazabicyclo[3.2.1]octan-8-yl]phenoxy]piperidine-1-carbonyl]-1-piperidyl]-2-(2,6-dioxo-3-piperidyl)isoindoline-1,3-dione] | 19 | 35 |
| Nc1nnc(-c2ccccc2O)cc1OC1CCCN(c2ccc(N3CCN(C(=O)CCCCCCCCCCCCCCn4cc(CNc5cccc6c5C(=O)N(C5CCC(=O)NC5=O)C6=O)nn4)CC3)cc2)C1 (stereo not drawn) [Example 8, 4-[[1-[15-[4-[4-[3-[3-amino-6-(2-hydroxyphenyl)pyridazin-4-yl]oxy-1-piperidyl]phenyl]piperazin-1-yl]-15-oxo-pentadecyl]triazol-4-yl]methylamino]-2-(2,6-dioxo-3-piperidyl)isoindoline-1,3-dione] | 254 | 65 |
| Nc1nnc(-c2ccccc2O)cc1N1CC2CCC(C1)N2c1cccc(OCCN2CCN(CCOC3CCN(c4ccc5c(c4)C(=O)N(C4CCC(=O)NC4=O)C5=O)CC3)CC2)c1 (racemic) [Example 35, rac-5-[4-[2-[4-[2-[3-[3-[3-amino-6-(2-hydroxyphenyl)pyridazin-4-yl]-3,8-diazabicyclo[3.2.1]octan-8-yl]phenoxy]ethyl]piperazin-1-yl]ethoxy]-1-piperidyl]-2-(2,6-dioxo-3-piperidyl)isoindoline-1,3-dione] | 22 | 33 |
| Nc1nnc(-c2ccccc2O)cc1N1CC(Oc2cccc(CN3CCN(C(=O)CCC4CCN(c5ccc6c(c5)C(=O)N(C5CCC(=O)NC5=O)C6=O)CC4)CC3)c2)C1 (racemic) [Example 154, rac-5-[4-[3-[4-[[3-[1-[3-amino-6-(2-hydroxyphenyl)pyridazin-4-yl]azetidin-3-yl]oxyphenyl]methyl]piperazin-1-yl]-3-oxo-propyl]-1-piperidyl]-2-(2,6-dioxo-3-piperidyl)isoindoline-1,3-dione] | 12 | 16 |
| Nc1nnc(-c2ccccc2O)cc1N1CC2CCC(C1)N2c1cccc(OCCN2CCN(C(=O)C3CN(c4ccc5c(c4)C(=O)N(C4CCC(=O)NC4=O)C5=O)C3)CC2)c1 (racemic) [Example 60, rac-5-[3-[4-[2-[3-[3-[3-amino-6-(2-hydroxyphenyl)pyridazin-4-yl]-3,8-diazabicyclo[3.2.1]octan-8-yl]phenoxy]ethyl]piperazine-1-carbonyl]azetidin-1-yl]-2-(2,6-dioxo-3-piperidyl)isoindoline-1,3-dione] | 18 | 32 |
| Nc1nnc(-c2ccccc2O)cc1N1CC2CCC(C1)N2c1cccc(OCCN2CCN(C(=O)CCNC(=O)C3CCN(c4ccc5c(c4)C(=O)N(C4CCC(=O)NC4=O)C5=O)CC3)CC2)c1 (racemic) [Example 42, rac-N-[3-[4-[2-[3-[3-[3-amino-6-(2-hydroxyphenyl)pyridazin-4-yl]-3,8-diazabicyclo[3.2.1]octan-8-yl]phenoxy]ethyl]piperazin-1-yl]-3-oxo-propyl]-1-[2-(2,6-dioxo-3-piperidyl)-1,3-dioxo-isoindolin-5-yl]piperidine-4-carboxamide] | 519 | 49 |
| Nc1nnc(-c2ccccc2O)cc1N1CCN(c2cccc(CN3CCN(C(=O)COc4ccc5c(c4)C(=O)N(C4CCC(=O)NC4=O)C5=O)CC3)c2)C2(CC2)C1 (stereo not drawn) [Example 129, 5-(2-(4-(3-(7-(3-amino-6-(2-hydroxyphenyl)pyridazin-4-yl)-4,7-diazaspiro[2.5]octan-4-yl)benzyl)piperazin-1-yl)-2-oxoethoxy)-2-(2,6-dioxopiperidin-3-yl)isoindoline-1,3-dione] | 37 | 38 |
| Nc1nnc(-c2ccccc2O)cc1N1CCC(NC(=O)CCN2CCC(c3ccc(OC4CCC(=O)NC4=O)cc3)CC2)(c2ccccc2)CC1 (stereo not drawn) [Example 115, N-(1-(3-amino-6-(2-hydroxyphenyl)pyridazin-4-yl)-4-phenylpiperidin-4-yl)-3-(4-(4-((2,6-dioxopiperidin-3-yl)oxy)phenyl)piperidin-1-yl)propanamide diformate] | 810 | 63 |
| Nc1nnc(-c2ccccc2O)cc1N1CCC(C(=O)N2CCC(C(=O)N3CCC(c4ccc(C5CCC(=O)NC5=O)cc4)CC3)CC2)(c2ccccc2)CC1 (stereo not drawn) [Example 175, 3-(4-(1-(1-(1-(3-amino-6-(2-hydroxyphenyl)pyridazin-4-yl)-4-phenylpiperidine-4-carbonyl)piperidine-4-carbonyl)piperidin-4-yl)phenyl)piperidine-2,6-dione] | 42 | 47 |
| Nc1ccccc1-c1cc(N2CC3CCC(C2)N3c2cccc(CN3CCN(C(=O)C4CCN(c5ccc6c(c5)C(=O)N(C5CCC(=O)NC5=O)C6=O)CC4)CC3)c2)c(N)nn1 (stereo not drawn) [Example 147, 5-[4-[4-[[3-[3-[3-amino-6-(2-aminophenyl)pyridazin-4-yl]-3,8-diazabicyclo[3.2.1]octan-8-yl]phenyl]methyl]piperazine-1-carbonyl]-1-piperidyl]-2-(2,6-dioxo-3-piperidyl)isoindoline-1,3-dione] | 236 | 69 |
| Nc1nnc(-c2ccccc2O)cc1N1CC(Oc2cccc(N3CCN(C(=O)C4CCN(c5ccc6c(c5)C(=O)N(C5CCC(=O)NC5=O)C6=O)CC4)CC3)c2)C1 (racemic) [Example 152, rac-5-[4-[4-[3-[1-[3-amino-6-(2-hydroxyphenyl)pyridazin-4-yl]azetidin-3-yl]oxyphenyl]piperazine-1-carbonyl]-1-piperidyl]-2-(2,6-dioxo-3-piperidyl)isoindoline-1,3-dione] | 5 | 42 |
| Nc1nnc(-c2ccccc2O)cc1N1CC2CCC(C1)N2c1cccc(CC2CCN(C(=O)CCNc3cccc4c3C(=O)N(C3CCC(=O)NC3=O)C4=O)CC2)c1 (racemic) [Example 58, rac-4-[[3-[4-[[3-[3-[3-amino-6-(2-hydroxyphenyl)pyridazin-4-yl]-3,8-diazabicyclo[3.2.1]octan-8-yl]phenyl]methyl]-1-piperidyl]-3-oxo-propyl]amino]-2-(2,6-dioxo-3-piperidyl)isoindoline-1,3-dione] | 43 | 59 |
